Measurements: patent US9833424B2, “Application of fluoxetine to treatment of depigmentation diseases” (SHANDONG RUNZE PHARMACEUTICALS CO., LTD., priority 2011, dated 2017)

How the values were obtained:
B16F10 cells [1] = experiment: MTT assay for measuring cell proliferation rate of B16F10 cells; format: cell-based, mouse; settings: 0.1 to 10 μM
[2] = system: tyrosinase activity of B16F10 cells; experiment: L-DOPA oxidation assay for measuring tyrosinase activity of B16F10 cells; format: cell-based, mouse
B16F10 cells [3] = experiment: NaOH lysis method for determination of melanin content of B16F10 cells; format: cell-based, mouse
B16F10 cells [4] = experiment: Western blotting of melanin synthesis proteins (MITF, TYR, TRP-1, TRP-2) in B16F10 cells; format: cell-based, mouse; settings: 72 h, vs blank control
[5] = system: normal human melanocytes (NHMCs); experiment: Morphology of normal human melanocytes (NHMCs), phase-contrast microscopy; format: cell-based; settings: 0.1-10 μM, 5 days, with increases in dosage
[6] = system: normal human primary melanocytes; experiment: MTT assay for measuring cell proliferation rate of human primary melanocytes; format: cell-based; settings: 72 hours
[7] = system: tyrosinase activity of human primary melanocytes; experiment: L-DOPA oxidation assay for tyrosinase activity of human primary melanocytes; format: cell-based
[8] = system: human primary melanocytes; experiment: NaOH lysis method for measuring melanin content of human primary melanocytes; format: cell-based
[9] = system: human primary melanocytes; experiment: Western blotting of melanin synthesis proteins (MITF, TYR, TRP-1, TRP-2) in human primary melanocytes; format: cell-based; settings: 72 h, vs blank control
C57BL/6 mice [10] = experiment: Skin color on the back of hair-removed synchronized C57BL/6 mice after gavage; format: in vivo, mouse; settings: 20 mg/kg gavage once a day, 12th day, vs solvent control group
C57BL/6 mice [11] = experiment: Western blotting of melanin synthesis proteins in skin hair follicles of C57BL/6 mice; format: in vivo, mouse; settings: 20 mg/kg gavage, 12th day
C57BL/6 mice [12] = experiment: Immunohistochemistry of melanin synthesis proteins in hair follicle melanocytes of C57BL/6 mice; format: in vivo, mouse; settings: 20 mg/kg gavage, 12th day, immunohistochemical staining
zebrafish embryos = experiment: Melanogenesis in PTU-induced zebrafish depigmentation model; format: in vivo; settings: even at 1.0 μM, hour 12 to hour 60 after fertilization; especially in skin and eyes
Protocol: The zebrafish depigmentation model were obtained by treating zebrafish embryos with 1-phenyl 2-thiourea (PTU). […] Both embryos were treated in 0.2 mM (“M” stands for “mole/liter” throughout this disclosure) PTU to inhibit melanogenesis from after fertilization until the time their pictures were taken, i.e., at hour 35 and hour 60, respectively, i.e., the PTU(35) group and the PTU(60) group. […] Data expressed as mean±SD (n=40).

[13] = system: TYR activity in zebrafish; experiment: TYR activity in PTU(35) group zebrafish; format: in vivo
Protocol: The zebrafish depigmentation model were obtained by treating zebrafish embryos with 1-phenyl 2-thiourea (PTU). […] All data were expression for at least three experiments. ***P<0.001 vs control; ^#P<0.05, ^##P<0.01, ^###P<0.001 vs PTU (35 h) group. Data expressed as mean±SD (n=40).

[14] = system: in vitro cultured normal human skin tissue; experiment: Melanin content of in vitro cultured normal human skin tissue (NaOH cracking process); format: cell-based; settings: 1 μM, 48 hours
[15] = system: tyrosinase activity in normal human skin tissue; experiment: Tyrosinase activity of in vitro cultured normal human skin tissue (L-DOPA); format: cell-based; settings: 1-100 μM, 48 hours
[16] = in vivo; cited from earlier work
A375 cells = experiment: Cell migration (wound healing test) and morphology, A375 cells; settings: 48 hours, 0.1-10 μM
B16F10 cells [17] = experiment: Cell migration (wound healing test) and morphology, B16F10 cells; settings: 48 hours, 0.1-10 μM

With `CNCCC(Oc1ccc(C(F)(F)F)cc1)c1ccccc1` (centres unmarked) [fluoxetine, N-methyl-γ-[4-(trifluoromethyl)phenoxy] phenylpropylamine] the “toxicity and carcinogenesis on B16F10 melanoma cells” value (B16F10 cells [1]) was “low toxicity and low carcinogenesis”, the “effect on the growth of B16F10 cells (cell proliferation rate)” value (B16F10 cells [1]; 72 hours, vs blank control, P>0.05) was “no significant effect” and the “tyrosinase activity of B16F10 cells” value ([2]; 72 hours, vs blank control, P<0.05 at 1 μM and 5 μM, P<0.01 at 10 μM) was “significantly promoted”. For the same molecule, the “enzyme activity increase rate compared with positive drug psoralen” value ([2]; B16F10 cells, fluoxetine in the highest concentration) was “close to that of the positive drug psoralen”, the “melanin content of B16F10 cells” value (B16F10 cells [3]; 1 to 10 μM, 72 hours, vs blank control, P<0.05 at 1 μM, P<0.01 at 5 μM and 10 μM) was “significantly increased” and the “melanin content increase rate compared with positive drug psoralen” value (B16F10 cells [3]; B16F10 cells) was “exceeded that of the positive drug psoralen”. The “expression of protein MITF” value (B16F10 cells [4]) was “significantly improve”, the “expression of protein tyrosinase (TYR)” value (B16F10 cells [4]) was “significantly improve” and the “expression of tyrosinase-related protein 1 (TRP-1)” value (B16F10 cells [4]) was “significantly improve”. The “protein level of tyrosinase-related protein 2 (TRP-2)” value (B16F10 cells [4]) was “not significantly affected”, the “dendritic morphology of NHMCs (number and length of dendrites)” value [5] was “the number as well as the length of the primary dendritic melanocytes increase significantly” and the “toxicity on human primary melanocytes” value [6] was “relatively low toxicity”. The “effect on the growth of normal human primary melanocytes” value ([6]; vs blank control, P>0.05) was “no significant effect”, the “tyrosinase activity of human primary melanocytes” value ([7]; 72 hours, vs blank control, P<0.01) was “significantly promoted” and the “enzyme activity increase rate compared with positive drug psoralen” value ([7]; human primary melanocytes, fluoxetine at 5 μM and 10 μM) was “exceeded that of the positive drug psoralen”. The “melanin content of human primary melanocytes” value ([8]; 72 hours, vs control group, P<0.01) was “significantly increased”, the “melanin content increase rate compared with positive drug psoralen” value ([8]; human primary melanocytes) was “close to or exceeded that of the positive drug psoralen” and the “expression of protein MITF” value [9] was “significantly improve”. For the same molecule, the “expression of protein tyrosinase (TYR)” value [9] was “significantly improve”, the “expression of tyrosinase-related protein 1 (TRP-1)” value [9] was “significantly improve” and the “protein level of tyrosinase-related protein 2 (TRP-2)” value [9] was “not significantly affected”. For the same molecule, the “skin color in the hair-removed area of the skin” value (C57BL/6 mice [10]) was “significantly darkened”, the “expression of protein MITF in skin hair follicles” value (C57BL/6 mice [11]) was “significantly improve” and the “expression of tyrosinase (TYR) in skin hair follicles” value (C57BL/6 mice [11]) was “significantly improve”. The “expression of tyrosinase-related protein 1 (TRP-1) in skin hair follicles” value (C57BL/6 mice [11]) was “significantly improve”, the “expression of tyrosinase-related protein 2 (TRP-2) in skin hair follicles” value (C57BL/6 mice [11]) was “significantly improve” and the “expression of tyrosinase (TYR) in hair follicle melanocytes” value (C57BL/6 mice [12]) was “significantly improve”. For the same molecule, the “expression of tyrosinase-related protein 1 (TRP-1) in hair follicle melanocytes” value (C57BL/6 mice [12]) was “significantly improve”, the “expression of tyrosinase-related protein 2 (TRP-2) in hair follicle melanocytes” value (C57BL/6 mice [12]) was “significantly improve” and the “melanogenesis in the PTU model zebrafish” value (zebrafish embryos) was “increased melanogenesis”. For the same molecule, the “TYR activity, dosage dependence” value ([13]; PTU(35) group zebrafish, 10.0 μM compared with 1.0 μM) was “higher TRY activity than Flx(1.0 μM)”, the “TYR activity in the PTU(35) group zebrafish” value ([13]; exposure for 48 hours (hour 12 to hour 60 after fertilization)) was “enhanced the TYR activity” and the “melanogenesis (melanin content) in skin tissue” value [14] was “stimulates melanogenesis”. For the same molecule, the “activity of tyrosinase in skin tissue” value [15] was “did not exhibit any change”, the “drug excreted in the stool” value [16] was 15% and the “drug excreted in the urine” value [16] was “about 80%”. The cell mobility (A375 cells) was “may increase the mobility” and the cell mobility (B16F10 cells [17]) was “may increase the mobility”.
